# Reference: PMC11671014 (PLOS Pathogens, 2024)
# “Also recorded” adds a separate entry of the source.
# Columns and labels:
# [1] = test system: P. falciparum (Pf3D7^0087/N9); assay: Therapeutic efficacy and tolerability in the SCID mouse P. falciparum model; format: in vivo, Plasmodium falciparum in NODscidIL2Rγ^null mice
# Protocol: The model using P. falciparum Pf3D7^0087/N9 in NODscidIL2Rγ^null mice engrafted with human RBCs was adapted from a previously described procedure. Female NODscidIL2Rγ^null mice were purchased from Charles River (Germany). Briefly, two engrafted mice/dosing group (females, 20–22 g) were infected intravenously with 2 x 10^7 P. falciparum (Pf3D7^0087/N9) on day 0. The antimalarial efficacy was assessed following administration (p.o.) of 100 or 200 mg/kg of compound or of 4 daily doses of 50 mg/kg, initiated on day 3 post-infection. The effect on blood parasitemia was measured by microscopic analysis of Giemsa-stained blood smears (on days 3, 4, 5, 6 and 7 post-infection). Mice were euthanized on day 7. Animal were monitored for symptoms of acute toxicity, including decreased activity, sunken flanks, ataxia and blood in faeces.
# Caco-2 permeability = format: in vitro ADME; settings: human
# Protocol: Permeability studies were performed as described previously. In brief, Caco-2 cells were cultured for 21–25 days to differentiate them into enterocyte-like cells. The transepithelial electrical resistance (TEER) was measured to ensure tight junction formation and cells with TEER value more than 250 ohms.cm^2 were used in the study. On the day of the transport study, cells were washed with warm HBSS buffer and equilibrated with buffer for 60 min. ML471 was added at a concentration of 5 μM (containing 50 μM Lucifer Yellow) into a 24 Transwell cell plate (apical 210 μL and basal 1000 μL) and buffer was added in the receiver side. Cells were incubated at 37°C for 60 min and 120 μL aliquots were taken from the receiver side after 30 and 60 min. Samples were mixed with 100 nM carbutamide in acetonitrile (ACN) containing 0.1% formic acid (internal standard). Samples were centrifuged at 2,056 x g for 10 min and the supernatant was collected and analyzed for quantification of the test article by LC-MS [49].
# [2] = test system: P. falciparum liver stage schizont (NF175); design: method as in ref [1] Xie et al., Science 2022; settings: ref [1] Xie et al., Science 2022; cited from earlier work
Compound,"effect on 3D7 parasitemia, 4 x daily doses ([1]; 4 x daily doses of 50 mg/kg p.o. from day 3 post-infection)","tolerability / toxicity in SCID mice (in words) ([1]; 100 or 200 mg/kg p.o. single dose, 4 x 50 mg/kg p.o.)","effect on 3D7 parasitemia, single dose regimen ([1]; either 100 or 200 mg/kg p.o. on day 3 post-infection)","Papp A→B at 60 min, 5 μM (Caco-2 permeability; 5 μM, 60 min, second figure of the cell, read-out: Caco2 Papp (A to B)) [×10⁻⁶ cm/s]","Papp B→A at 60 min, 5 μM (Caco-2 permeability; 5 μM, 60 min, third figure of the cell, read-out: Caco2 Papp (B to A)) [×10⁻⁶ cm/s]","efflux ratio at 60 min, 5 μM (Caco-2 permeability; equals B to A / A to B, read-out: Caco2, first figure of the cell, not given)",IC50 [2] [nM]
"CC(C)c1nn([C@@H]2O[C@H](COS(N)(=O)=O)[C@@H](O)[C@H]2O)c2ncnc(N)c12 [ML471, ((2R,3S,4R,5R)-5-(4-amino-3-isopropyl-1H-pyrazolo[3,4-d]pyrimidin-1-yl)-3,4-dihydroxytetrahydrofuran-2-yl)methyl sulfamate]",reduced the 3D7 parasitemia to baseline,well tolerated; also recorded: no evidence of toxicity,reduction of 3D7 parasitemia to baseline,0.17,1.3,7.6,
Nc1ncnc2c1c(OC(F)F)nn2[C@@H]1O[C@H](COS(N)(=O)=O)[C@@H](O)[C@H]1O [ML901],,,,,,,13 ± 5
